Calls of active or inactive are those of the source. The calls are words filed in the database; no cut-off is given here.
Experiments:
Umbelopsis ramanniana [1] = assay: Antifungal activity against Mortierella ramanniana at 160 ug/disk; type: functional, organism-based
P388 [2] = assay: Cytotoxicity against mouse P388 cells at 5 ug/mL; type: functional, cell-based
Umbelopsis ramanniana [3] = assay: Antifungal activity against Mortierella ramanniana at 5 ug/disk; type: functional, organism-based
P388 [4] = assay: Cytotoxicity against mouse P388 cells; type: functional, cell-based

SMILES	Activity (Umbelopsis ramanniana [1])	Activity (P388 [2])	Activity (Umbelopsis ramanniana [3])	IC50 (P388 [4])
CC(C)[C@@H](NC(=O)[C@@H]1CCCN1C(=O)[C@H](Cc1ccc(Br)cc1)NC(=O)[C@@H](C)NC=O)C(=O)N[C@H](C(=O)N[C@H](Cc1c[nH]c2ccccc12)C(=O)N[C@@H](CCCNC(=N)N)C(=O)N[C@H](CS(=O)(=O)O)C(=O)N[C@H](C(=O)N(C)[C@@H](CCC(N)=O)C(=O)N[C@H](Cc1ccccc1)C(N)=O)[C@@H](C)O)C(C)(C)C	Active	inactive	–	–
CC(C)[C@H](NC(=O)[C@H](NC(=O)[C@@H]1CCCN1C(=O)[C@H](Cc1ccc(Br)cc1)NC(=O)[C@@H](C)NC=O)C(C)C)C(=O)N[C@H](Cc1c[nH]c2ccccc12)C(=O)N[C@@H](CCCNC(=N)N)C(=O)N[C@H](CS(=O)(=O)[O-])C(=O)N[C@@H]1C(=O)N(C)[C@@H](CCC(N)=O)C(=O)N[C@H](Cc2ccccc2)C(=O)NCC(=O)N[C@H](CC(N)=O)C(=O)O[C@@H]1C.[Na+] [HALICYLINDRAMIDE D]	–	–	Active	2.1 µg/mL

Source: ChEMBL document CHEMBL1151678, “Halicylindramides D and E, antifungal peptides from the marine sponge Halichondria cylindrata” (J Nat Prod, 1996)
